A short description of data set [1]: Pharmacokinetics after intra-tracheal dry powder dosing in the pig. Type of data set: in vivo. Conditions: 1 mg intra-tracheal, LLOQ 10 pg/mL compound (I), 20pg/mL fluticasone propionate. The procedure: Serial blood samples were taken for up to 8 h following dosing.
Data set [2] has as its system thymus weight. As to the kind of experiment: Rat model of thymus involution. Type of data set: in vivo. The settings on record: 3 daily IT doses of 100 μg.
Data set [3] has as its system lung eosinophilia. As to the kind of experiment: Ovalbumin sensitised Brown Norway rat eosinophilia model. In kind it is in vivo. The settings on record: single dose of 30 μg, intra-tracheal suspension in saline 30 min prior to ovalbumin challenge. The procedure:
Pharmacological activity in vivo was assessed in an ovalbumin sensitised Brown Norway rat eosinophilia model. This model is designed to mimic allergen induced lung eosinophilia, a major component of lung inflammation in asthma.

In data set [4] the target is T1, glucocorticoid receptor (Homo sapiens, UniProt P04150).
T1 construct: endogenous in cells
T1 sequence (P04150 1-777): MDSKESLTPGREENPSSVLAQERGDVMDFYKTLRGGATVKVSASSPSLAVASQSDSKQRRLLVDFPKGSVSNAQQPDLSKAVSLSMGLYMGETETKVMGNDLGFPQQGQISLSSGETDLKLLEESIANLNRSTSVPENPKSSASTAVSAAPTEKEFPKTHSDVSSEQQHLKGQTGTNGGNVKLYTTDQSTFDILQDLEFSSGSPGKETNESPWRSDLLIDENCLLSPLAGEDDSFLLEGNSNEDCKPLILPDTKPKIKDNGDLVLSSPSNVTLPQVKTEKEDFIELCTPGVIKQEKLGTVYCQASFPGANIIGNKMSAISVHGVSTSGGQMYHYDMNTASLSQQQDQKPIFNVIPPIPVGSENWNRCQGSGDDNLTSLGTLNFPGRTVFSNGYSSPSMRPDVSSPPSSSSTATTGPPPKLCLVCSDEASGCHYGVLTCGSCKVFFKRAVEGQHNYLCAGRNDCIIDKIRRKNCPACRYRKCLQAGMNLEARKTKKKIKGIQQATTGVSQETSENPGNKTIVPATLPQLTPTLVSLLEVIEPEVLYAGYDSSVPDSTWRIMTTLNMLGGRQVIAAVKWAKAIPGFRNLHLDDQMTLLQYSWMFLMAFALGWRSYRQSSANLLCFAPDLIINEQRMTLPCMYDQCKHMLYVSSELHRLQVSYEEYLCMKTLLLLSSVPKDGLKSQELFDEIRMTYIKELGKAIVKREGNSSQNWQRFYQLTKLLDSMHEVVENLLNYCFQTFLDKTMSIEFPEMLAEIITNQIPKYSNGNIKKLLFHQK
As to the kind of experiment: In vitro functional glucocorticoid assays, metabolite versus parent. In kind it is cell-based. The procedure: Compound (I) undergoes highly efficient hepatic metabolism to yield the 17-β carboxylic acid (X) as the sole major metabolite in rat and human in vitro systems.
The functional assay was based on that described by K. P. Ray et al., Biochem J. (1997), 328, 707-715. A549 cells stably transfected with a reporter gene containing the NF-κB responsive elements from the ELAM gene promoter coupled to sPAP (secreted alkaline phosphatase) were treated with test compounds at appropriate doses for 1 hour at 37° C. The cells were then stimulated with tumour necrosis factor (TNF, 10ng/ml) for 16 hours, at which time the amount of alkaline phosphatase produced is measured by a standard colourimetric assay. Dose response curves were constructed from which EC50 values were estimated.
(§1) In a variant of the above method, to monitor these functions, two reporter plasmids have been generated and introduced separately into A549 human lung epithelial cells by transfection. […] After incubation for 1 h 0.5ng/ml TNFα (R&D Systems) was added and after a further 15 hours at 37° C., the levels of firefly and renilla luciferase were measured using the Packard Firelite kit following the manufacturers' directions. Dose response curves were constructed from which EC50 values were determined.

Data set [5] deals with NFκB. As to the kind of experiment: Transrepression reporter assay (firefly luciferase, NFκB promoter, TNFα stimulated) in A549 cells. In kind it is cell-based. The settings on record: Homo sapiens, 1 h compound then 0.5ng/ml TNFα 15 hours, read-out: Transrepression (NFκB) ED50. The source says: (§2) The glucocorticoid receptor (GR) can function in at least two distinct mechanisms, by upregulating gene expression through the direct binding of GR to specific sequences in gene promoters, and by downregulating gene expression that is being driven by other transcription factors (such as NFκB or AP-1) through their direct interaction with GR.
The first cell line contains the firefly luciferase reporter gene under the control of a synthetic promoter that specifically responds to activation of the transcription factor NFκB when stimulated with TNFα. The second cell line contains the renilla luciferase reporter gene under the control of a synthetic promotor that comprises 3 copies of the consensus glucocorticoid response element, and which responds to direct stimulation by glucocorticoids. Simultaneous measurement of transactivation and transrepression was conducted by mixing the two cell lines in a 1:1 ratio in 96 well plate (40,000 cells per well) and growing overnight at 37° C. Test compounds were dissolved in DMSO, and added to the cells at a final DMSO concentration of 0.7%. […] Dose response curves were constructed from which EC50 values were determined.

The target of data set [6] is T2, glucocorticoid receptor (GR) (Homo sapiens, UniProt P04150).
T2 construct: two reporter plasmids have been generated and introduced separately into A549 human lung epithelial cells by transfection; endogenous in cells; host or cells: A549 human lung epithelial cells stably carrying a renilla luciferase reporter with 3 copies of the consensus GRE
T2 sequence (P04150 1-777): T1 sequence (P04150 1-777)
As to the kind of experiment: Transactivation reporter assay (renilla luciferase, glucocorticoid response element) in A549 cells. Type of data set: cell-based. The settings on record: 1 h compound then 0.5ng/ml TNFα 15 hours, read-out: Transactivation (GR) ED50.
Excerpt: as §2
as §1, with “transfection. The first cell line contains the firefly luciferase reporter gene under the control of a synthetic promoter that specifically responds to activation of the transcription factor NFκB when stimulated with TNFα. The second cell line contains the renilla luciferase reporter gene under the control of a synthetic promotor that comprises 3 copies of the consensus glucocorticoid response element, and which responds to direct stimulation by glucocorticoids.” for “transfection.”
In general terms: A reporter such as luciferase makes a cellular process visible.

Some results are limits rather than exact numbers.

In the case of `CCC(=O)O[C@]1(C(=O)SCF)[C@H](C)C[C@H]2[C@@H]3C[C@H](F)C4=CC(=O)C=C[C@]4(C)[C@@]3(F)[C@@H](O)C[C@@]21C` [Fluticasone propionate, 6α, 9α-Difluoro-17α-(1-oxopropoxy)-11β-hydroxy-16α-methyl-3-oxo-androsta-1,4-diene-17β-carbothioic acid S-fluoromethyl ester, reference compound], the “time after dosing up to which quantifiable in plasma” value in data set [1] is recorded as “up to 8 hours”. In data set [2], the “reduction of thymus weight” value turned out to be 78%. In addition, the “inhibition of lung eosinophilia” value in data set [3] came out at 41%.
On to `C[C@@H]1CCC2C3C[C@H](F)C4=CC(=O)C=C[C@]4(C)[C@@]3(F)[C@@H](O)C[C@]2(C)[C@@]1(OC(=O)c1ccco1)C(=O)O` (stereo partly drawn) [Metabolite (X)], for which the “fold less active than the parent compound” value in data set [4] was above 1000 fold. Besides, the EC50 in data set [5] is above 1000 nM; in data set [6] it was above 250 nM.
